From ChEMBL document CHEMBL1147743, “The first potent inhibitors for human glutaminyl cyclase: synthesis and structure-activity relationship” (J Med Chem, 2006)

Target: Glutaminyl-peptide cyclotransferase (Homo sapiens, UniProt Q16769)
Test: Inhibitory activity against human glutaminyl cyclase

Chain of Glutaminyl-peptide cyclotransferase (Q16769 whole entry): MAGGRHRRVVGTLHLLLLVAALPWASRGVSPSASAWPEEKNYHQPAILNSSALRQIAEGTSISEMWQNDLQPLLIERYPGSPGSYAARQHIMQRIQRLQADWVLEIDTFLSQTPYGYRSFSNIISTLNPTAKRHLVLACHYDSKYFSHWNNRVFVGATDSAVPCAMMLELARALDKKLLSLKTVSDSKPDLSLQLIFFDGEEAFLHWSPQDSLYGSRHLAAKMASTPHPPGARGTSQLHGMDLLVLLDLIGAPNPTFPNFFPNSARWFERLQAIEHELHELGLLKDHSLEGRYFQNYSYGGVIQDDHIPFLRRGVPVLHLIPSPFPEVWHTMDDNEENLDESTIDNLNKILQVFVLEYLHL

Row | Ki [nM] | Compound
1 | 700 | O=C1CNC(=S)N1CCCn1ccnc1
2 | 4700 | S=C(NCCCn1ccnc1)NC1CCCCC1
